In the NIST ThermoML archive (doi:10.1021/acs.jced.7b00344):
± gives the expanded uncertainty stated by the source.

How the values were obtained:
[1] = Liquid; for viscosity / mass density: 101.3 kPa; for viscosity: Capillary tube (Ostwald / Ubbelohde) method; for mass density: Pycnometric method; for vapor or sublimation pressure: Ebulliometric method (Recirculating still)
[2] = xn = mol fraction of the nth substance listed; details: 101.3 kPa, Liquid, x1 = 1; for viscosity: Capillary tube (Ostwald / Ubbelohde) method; for mass density: Pycnometric method

Q: For `CC(=O)CCCCl` [1-chloro-4-pentanone], which viscosity ([1]; 303.15 K) is on record?
A: The viscosity was 1.582 ± 0.033 mPa·s.

Q: What about the mass density ([1]; 303.15 K) of the same compound?
A: The mass density was 1051.3 ± 1.1 kg/m3.

Q: What about the viscosity ([1]; 313.15 K) of the same compound?
A: The viscosity was 1.318 ± 0.028 mPa·s.

Q: What about the mass density ([1]; 313.15 K) of the same compound?
A: The mass density was 1041.1 ± 1.1 kg/m3.

Q: What about the viscosity ([1]; 323.15 K) of the same compound?
A: The viscosity was 1.078 ± 0.023 mPa·s.

Q: What about the mass density ([1]; 323.15 K) of the same compound?
A: The mass density was 1031.2 ± 1.1 kg/m3.

Q: And the viscosity ([1]; 333.15 K)?
A: The viscosity was 0.9667 ± 0.02 mPa·s.

Q: And the mass density ([1]; 333.15 K)?
A: The mass density was 1020.8 ± 1.1 kg/m3.

Q: And the “vapor or sublimation pressure” value ([1]; 343.2 K)?
A: The value was 2.91 ± 0.6 kPa.

Q: What about the “vapor or sublimation pressure” value ([1]; 353.1 K) of the same compound?
A: Its value is 4.66 ± 0.6 kPa.

Q: And the “vapor or sublimation pressure” value ([1]; 363.1 K)?
A: The value was 7.15 ± 0.6 kPa.

Q: And the “vapor or sublimation pressure” value ([1]; 373.8 K)?
A: The value was 10.5 ± 0.61 kPa.

Q: What about the “vapor or sublimation pressure” value ([1]; 393.8 K) of the same compound?
A: The value was 20.79 ± 0.61 kPa.

Q: What about the “vapor or sublimation pressure” value ([1]; 404.6 K) of the same compound?
A: Its value is 30.23 ± 0.63 kPa.

Q: And the “vapor or sublimation pressure” value ([1]; 413.8 K)?
A: The value was 41.16 ± 0.64 kPa.

Q: And the “vapor or sublimation pressure” value ([1]; 423.8 K)?
A: Its value is 52.6 ± 0.64 kPa.

Q: What about the “vapor or sublimation pressure” value ([1]; 433.5 K) of the same compound?
A: The value was 62.27 ± 0.66 kPa.

Q: And the “vapor or sublimation pressure” value ([1]; 438.1 K)?
A: The value was 72.35 ± 0.71 kPa.

Q: What about the “vapor or sublimation pressure” value ([1]; 443.6 K) of the same compound?
A: Its value is 81.58 ± 0.7 kPa.

Q: And the “vapor or sublimation pressure” value ([1]; 449.3 K)?
A: Its value is 92.85 ± 0.73 kPa.

Q: And the “vapor or sublimation pressure” value ([1]; 454 K)?
A: The value was 103.42 ± 0.75 kPa.

Q: Which results are given for `CC(=O)C1CC1` [1-cyclopropyl ethanone]?
A: vapor or sublimation pressure ([1]; 300 K): 3.65 ± 0.6 kPa; viscosity ([1]; 303.15 K): 0.5572 ± 0.012 mPa·s; mass density ([1]; 303.15 K): 889.8 ± 1.1 kg/m3; vapor or sublimation pressure ([1]; 310.1 K): 6.06 ± 0.6 kPa; viscosity ([1]; 313.15 K): 0.5015 ± 0.011 mPa·s; mass density ([1]; 313.15 K): 880.3 ± 1.1 kg/m3; vapor or sublimation pressure ([1]; 320.8 K): 9.95 ± 0.61 kPa; viscosity ([1]; 323.15 K): 0.4524 ± 0.0096 mPa·s; mass density ([1]; 323.15 K): 870.6 ± 1.1 kg/m3; viscosity ([1]; 333.15 K): 0.3942 ± 0.0085 mPa·s; mass density ([1]; 333.15 K): 861.2 ± 1.1 kg/m3; vapor or sublimation pressure ([1]; 337 K): 20.07 ± 0.62 kPa; vapor or sublimation pressure ([1]; 347.7 K): 30.05 ± 0.64 kPa; vapor or sublimation pressure ([1]; 355.6 K): 40.07 ± 0.66 kPa; vapor or sublimation pressure ([1]; 362.1 K): 49.78 ± 0.69 kPa; vapor or sublimation pressure ([1]; 367.6 K): 59.85 ± 0.71 kPa; vapor or sublimation pressure ([1]; 372.6 K): 70.04 ± 0.74 kPa; vapor or sublimation pressure ([1]; 376.9 K): 80.03 ± 0.78 kPa; vapor or sublimation pressure ([1]; 380.6 K): 89.62 ± 0.81 kPa; vapor or sublimation pressure ([1]; 384.8 K): 101.3 kPa; vapor or sublimation pressure ([1]; 385 K): 102.18 ± 0.83 kPa

Q: For `CC(=O)C1CC1` [1-cyclopropyl ethanone] + CC(=O)C1CCOC1=O, which viscosity ([2]; 303.15 K) is on record?
A: The viscosity was 0.5572 ± 0.012 mPa·s.

Q: What about the mass density ([2]; 303.15 K) of the same compound?
A: Its mass density is 889.8 ± 1.1 kg/m3.

Q: What about the viscosity ([2]; 313.15 K) of the same compound?
A: The viscosity was 0.5015 ± 0.011 mPa·s.

Q: What about the mass density ([2]; 313.15 K) of the same compound?
A: The mass density was 880.3 ± 1.1 kg/m3.

Q: And the viscosity ([2]; 323.15 K)?
A: The viscosity was 0.4524 ± 0.0096 mPa·s.

Q: And the mass density ([2]; 323.15 K)?
A: The mass density was 870.6 ± 1.1 kg/m3.

Q: And the viscosity ([2]; 333.15 K)?
A: Its viscosity is 0.3942 ± 0.0085 mPa·s.

Q: What about the mass density ([2]; 333.15 K) of the same compound?
A: The mass density was 861.2 ± 1.1 kg/m3.

Q: With `CC(=O)C1CCOC1=O` (centres undefined) [2-acetylbutyrolactone] as the compound, how does the viscosity ([1]; 303.15 K) read?
A: The viscosity was 3.794 ± 0.079 mPa·s.

Q: And the mass density ([1]; 303.15 K)?
A: The mass density was 1185.7 ± 1.1 kg/m3.

Q: And the viscosity ([1]; 313.15 K)?
A: The viscosity was 3.424 ± 0.072 mPa·s.

Q: What about the mass density ([1]; 313.15 K) of the same compound?
A: The mass density was 1178.3 ± 1.1 kg/m3.

Q: What about the viscosity ([1]; 323.15 K) of the same compound?
A: The viscosity was 3.067 ± 0.064 mPa·s.

Q: And the mass density ([1]; 323.15 K)?
A: The mass density was 1168.9 ± 1.1 kg/m3.

Q: What about the viscosity ([1]; 333.15 K) of the same compound?
A: The viscosity was 2.719 ± 0.057 mPa·s.

Q: What about the mass density ([1]; 333.15 K) of the same compound?
A: Its mass density is 1159.4 ± 1.1 kg/m3.

Q: What about the “vapor or sublimation pressure” value ([1]; 385 K) of the same compound?
A: Its value is 0.552 ± 0.6 kPa.

Q: And the “vapor or sublimation pressure” value ([1]; 395.1 K)?
A: The value was 1.02 ± 0.6 kPa.

Q: What about the “vapor or sublimation pressure” value ([1]; 405.2 K) of the same compound?
A: The value was 1.77 ± 0.6 kPa.

Q: And the “vapor or sublimation pressure” value ([1]; 415.3 K)?
A: The value was 2.92 ± 0.6 kPa.

Q: And the “vapor or sublimation pressure” value ([1]; 425.5 K)?
A: Its value is 4.61 ± 0.6 kPa.

Q: What about the “vapor or sublimation pressure” value ([1]; 434.6 K) of the same compound?
A: Its value is 6.98 ± 0.6 kPa.

Q: What about the “vapor or sublimation pressure” value ([1]; 445.1 K) of the same compound?
A: The value was 10 ± 0.61 kPa.

Q: What about the “vapor or sublimation pressure” value ([1]; 464.5 K) of the same compound?
A: Its value is 20 ± 0.61 kPa.

Q: And the “vapor or sublimation pressure” value ([1]; 478.2 K)?
A: Its value is 30.05 ± 0.62 kPa.

Q: What about the “vapor or sublimation pressure” value ([1]; 489.4 K) of the same compound?
A: The value was 40.17 ± 0.64 kPa.

Q: What about the “vapor or sublimation pressure” value ([1]; 505.8 K) of the same compound?
A: The value was 60.05 ± 0.65 kPa.

Q: And the “vapor or sublimation pressure” value ([1]; 511.5 K)?
A: The value was 69.06 ± 0.68 kPa.

Q: What about the “vapor or sublimation pressure” value ([1]; 517.3 K) of the same compound?
A: Its value is 78.1 ± 0.68 kPa.

Q: And the “vapor or sublimation pressure” value ([1]; 523.3 K)?
A: The value was 88.01 ± 0.71 kPa.

Q: What about the “vapor or sublimation pressure” value ([1]; 530.8 K) of the same compound?
A: The value was 103.54 ± 0.73 kPa.

Q: What about the “vapor or sublimation pressure” value ([1]; 530.9 K) of the same compound?
A: Its value is 101.3 kPa.
